We go through 24 compounds from patent US20250163051A1, “PYRIMIDO AROMATIC RING COMPOUND AND USE THEREOF IN DRUG” (SUNSHINE LAKE PHARMA CO., LTD., priority 2022, published 2025).

Data set [1] addresses T1, hTLR7 (Homo sapiens, UniProt Q9NYK1).
T1 construct: expressed in transfected cells; host or cells: HEK-Blue hTLR7 cells
T1 sequence (Q9NYK1 27-1049): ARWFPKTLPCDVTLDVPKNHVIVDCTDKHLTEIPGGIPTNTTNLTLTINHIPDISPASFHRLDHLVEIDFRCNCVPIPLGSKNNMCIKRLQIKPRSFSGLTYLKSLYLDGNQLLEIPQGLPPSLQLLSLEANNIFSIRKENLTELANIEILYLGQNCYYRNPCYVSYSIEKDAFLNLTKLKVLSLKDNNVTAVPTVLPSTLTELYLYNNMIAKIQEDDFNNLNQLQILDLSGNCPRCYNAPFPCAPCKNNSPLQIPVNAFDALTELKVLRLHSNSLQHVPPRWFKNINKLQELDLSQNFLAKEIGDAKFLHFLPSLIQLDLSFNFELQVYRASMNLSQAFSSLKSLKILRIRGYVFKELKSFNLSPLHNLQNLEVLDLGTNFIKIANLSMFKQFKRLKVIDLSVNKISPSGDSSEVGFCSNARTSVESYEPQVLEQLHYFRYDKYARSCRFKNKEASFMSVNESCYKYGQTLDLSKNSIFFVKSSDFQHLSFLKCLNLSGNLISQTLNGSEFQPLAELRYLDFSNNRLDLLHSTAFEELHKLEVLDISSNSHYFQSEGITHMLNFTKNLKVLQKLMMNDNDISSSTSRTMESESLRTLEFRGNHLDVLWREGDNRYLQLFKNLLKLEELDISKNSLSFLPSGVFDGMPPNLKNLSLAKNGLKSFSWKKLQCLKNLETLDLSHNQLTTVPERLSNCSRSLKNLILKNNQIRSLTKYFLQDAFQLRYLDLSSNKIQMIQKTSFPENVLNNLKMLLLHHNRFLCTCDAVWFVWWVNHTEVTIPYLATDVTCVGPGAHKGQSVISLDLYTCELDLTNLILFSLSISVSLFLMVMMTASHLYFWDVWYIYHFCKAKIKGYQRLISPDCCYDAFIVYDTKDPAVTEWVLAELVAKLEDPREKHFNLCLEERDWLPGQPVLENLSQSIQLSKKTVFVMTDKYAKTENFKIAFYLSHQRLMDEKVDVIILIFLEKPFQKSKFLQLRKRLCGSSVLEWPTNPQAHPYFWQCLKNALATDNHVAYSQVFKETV
Kind of data set: Agonistic activity on human TLR7 in HEK-Blue hTLR7 cells (QUANTI-Blue). Particulars: 24 h incubation, OD650, read-out: hTLR 7 EC50. Type of data set: cell-based.

The target in data set [2] is T2, hTLR8 (Homo sapiens, UniProt Q9NR97).
T2 construct: expressed in transfected cells; host or cells: HEK-Blue hTLR8 cells
T2 sequence (Q9NR97 27-1041): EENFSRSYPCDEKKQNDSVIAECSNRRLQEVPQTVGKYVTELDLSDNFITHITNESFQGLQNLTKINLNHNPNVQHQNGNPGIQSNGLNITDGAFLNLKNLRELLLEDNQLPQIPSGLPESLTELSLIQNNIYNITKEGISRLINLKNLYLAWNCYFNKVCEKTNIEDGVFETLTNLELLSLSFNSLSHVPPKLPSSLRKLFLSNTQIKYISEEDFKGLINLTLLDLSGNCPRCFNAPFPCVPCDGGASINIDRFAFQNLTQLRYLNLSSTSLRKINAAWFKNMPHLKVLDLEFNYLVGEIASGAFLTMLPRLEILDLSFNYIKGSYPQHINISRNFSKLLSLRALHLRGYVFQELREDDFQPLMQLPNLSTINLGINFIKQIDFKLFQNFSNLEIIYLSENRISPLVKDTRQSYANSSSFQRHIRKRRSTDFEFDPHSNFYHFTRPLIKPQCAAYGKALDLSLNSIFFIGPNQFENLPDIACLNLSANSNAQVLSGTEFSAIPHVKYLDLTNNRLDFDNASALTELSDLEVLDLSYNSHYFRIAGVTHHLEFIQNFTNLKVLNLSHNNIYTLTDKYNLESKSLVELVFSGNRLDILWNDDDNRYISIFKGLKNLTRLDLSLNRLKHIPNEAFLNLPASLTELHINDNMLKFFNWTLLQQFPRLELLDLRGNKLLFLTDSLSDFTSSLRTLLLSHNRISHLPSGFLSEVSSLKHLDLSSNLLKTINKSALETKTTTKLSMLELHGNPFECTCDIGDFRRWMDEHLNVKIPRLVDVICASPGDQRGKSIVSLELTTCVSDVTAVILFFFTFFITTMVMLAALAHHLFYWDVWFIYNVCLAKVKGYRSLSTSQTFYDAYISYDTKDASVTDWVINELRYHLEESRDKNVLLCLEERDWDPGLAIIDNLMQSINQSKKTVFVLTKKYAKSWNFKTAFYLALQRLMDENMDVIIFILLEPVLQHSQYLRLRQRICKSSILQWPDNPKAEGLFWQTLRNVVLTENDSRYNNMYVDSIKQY
Kind of data set: Agonistic activity on human TLR8 in HEK-Blue hTLR8 cells (QUANTI-Blue). The class given is cell-based. Conditions: 24 h incubation, OD650, read-out: hTLR 8 EC50.
Description: Purpose: HEK-Blue™ hTLR7 and HEK-Blue™ hTLR8 cells were used to detect the agonist and cytotoxic activities of compounds against hTLR7 and hTLR8.
The experimental steps were as shown below: • 1) Preparation of compound: The compound was prepared into a 20 mM stock solution with DMSO, and then the stock solution was diluted 3-fold in a gradient and added to a 96-well plate, for a total of 10 concentrations, with duplicate wells for each concentration. For negative control wells, 0.5 μL DMSO was added to each well. The final DMSO concentration was 0.5%. • 2) HEK-Blue™ hTLR7 or HEK-Blue™ hTLR8 cells were suspended in culture medium and then seeded into 96-well plates containing compounds at a cell count of 50,000 per well. The compounds and cells were incubated for 24 h at 37° C., 5% Co2. • 3) QUANTI-Blue was used for the detection solution: to a mixture of 1 mL of QB reagent and 1 mL of QB buffer was added 98 mL of sterile water, the mixture was mixed and dissolved, and then placed at room temperature for 10 min. • 4) Activity test of the compound: 20 μL of the culture supernatant in step 2) was added to each well of a 96-well plate containing 180 μL of QUANTI-Blue detection solution. After incubation at 37° C. for 1 h, the absorbance at 650 nm (OD650) was detected using a multifunctional microplate reader Flextation III. • 5) Detection of cell activity: The chemiluminescent signal (RLU) was detected using the multifunctional microplate reader Flextation III according to the instructions of Celltiter-Glo. • 6) Data analysis
Activity of compounds: OD650 values were analyzed using GraphPad Prism software, and the compound dose-effect curves were fitted to calculate the EC50 values of the compounds.

The nature of data set [3]: Cell toxicity (Celltiter-Glo) in HEK-Blue hTLR8 cells. Particulars: human. In general terms: In ATP-based viability assays light output follows the ATP content of the culture.

A word on the EC50: it is the concentration that produces a half-maximal response. Broadly, the CC50 is the concentration at which the toxic effect on the cells reaches its halfway point. Lower therefore signals greater toxicity to the cells. As to `C=CCCN(C)Cc1cn(C)c(=O)cc1-c1cnc2c(N[C@](C)(CCCC)CNC(=O)c3cnn(C)c3)nc(N)nc2c1` [Example 45], the EC50 in data set [1] is greater than 100 µM; in data set [2], 0.097 µM. Further, the CC50 at 24 h in data set [3] is greater than 100 µM.

Consider `CCCC[C@](C)(CO)Nc1nc(N)nc2cc(-c3cc(=O)[nH]cc3CSC)cnc12` [Example 52, (R)-4-(2-Amino-4-((1-hydroxy-2-methylhexan-2-yl)amino)pyrido[3,2-d]pyrimidin-7-yl)-5-((methylthio)methyl)pyridin-2(1H)-one], for which the 50% effective concentration (EC50) in data set [1] came out at 18.4 µM; in data set [2], 0.03 µM. For the same compound, in data set [3], the CC50 at 24 h is greater than 100 µM.

For `CCCC[C@](C)(CO)Nc1nc(N)nc2cc(-c3cc(=O)[nH]cc3CNCCOC)ccc12` [Example 57, (R)-4-(2-Amino-4-((1-hydroxy-2-methylhexan-2-yl)amino)quinazolin-7-yl)-5-(((2-methoxyethyl)amino)methyl)pyridin-2(1H)-one], the EC50 in data set [1] is greater than 100 µM; in data set [2], 1.86 µM. For the same compound, the half-maximal cytotoxic concentration (CC50) at 24 h in data set [3] is greater than 100 µM.

As to `C=CCCN(Cc1c[nH]c(=O)cc1-c1cnc2c(N[C@@](C)(CO)CCCC)nc(N)nc2c1)C(C)C` [Example 19], the values for the EC50 in data set [1] and in data set [2] were greater than 100 µM and 0.255 µM, respectively. In data set [3], this compound returned a CC50 at 24 h greater than 100 µM.

With `CCCCN(C)Cc1c[nH]c(=O)cc1-c1cnc2c(N[C@](C)(CCCC)COC)nc(N)nc2c1` [Example 53, (R)-4-(2-Amino-4-((1-methoxy-2-methylhexan-2-yl)amino)pyrido[3,2-d]pyrimidin-7-yl)-5-((butyl(methyl)amino)methyl)pyridin-2(1H)-one], in data set [2], the EC50 came out at 0.68 µM.

In turn, `CCCC[C@H](CO)Nc1nc(N)nc2cc(-c3cc(=O)[nH]cc3CN(C)CCCC)cnc12` [Example 43, (R)-4-(2-Amino-4-((1-hydroxyhexan-2-yl)amino)pyrido[3,2-d]pyrimidin-7-yl)-5-((butyl(methyl)amino)methyl)pyridin-2(1H)-one] returned a half-maximal cytotoxic concentration (CC50) at 24 h in data set [3] greater than 100 µM.

Take `CCCC[C@](C)(CO)Nc1nc(N)nc2cc(-c3cc(=O)[nH]cc3COC)ccc12` [Example 68, (R)-4-(2-Amino-4-((1-hydroxy-2-methylhexan-2-yl)amino)quinazolin-7-yl)-5-(methoxymethyl) pyridin-2(1H)-one]: the EC50 was found to be 14.2 µM in data set [1] and 0.042 µM in data set [2]. Besides, the CC50 at 24 h in data set [3] is greater than 100 µM.

In the case of `CC#CCN(C)Cc1c[nH]c(=O)cc1-c1cnc2c(N[C@@](C)(CO)CCCC)nc(N)nc2c1` [Example 27], the EC50 in data set [1] was greater than 100 µM; in data set [2], 4.25 µM. The compound also showed a cytotoxic concentration (CC50) at 24 h in data set [3] greater than 100 µM.

As to `C=CCCN(C)Cc1c[nH]c(=O)cc1-c1cnc2c(N[C@@H](CO)CCCC)nc(N)nc2c1` [Example 42, (R)-4-(2-Amino-4-((1-hydroxyhexan-2-yl)amino)pyrido[3,2-d]pyrimidin-7-yl)-5-((but-3-en-1-yl (methyl)amino)methyl)pyridin-2(1H)-one], the EC50 in data set [1] was greater than 100 µM; in data set [2], 0.595 µM. Further, the 50% cytotoxic concentration (CC50) at 24 h in data set [3] was greater than 100 µM.

In the case of `CCCC[C@](C)(CO)Nc1nc(N)nc2cc(-c3cc(=O)[nH]cc3CN3CCCCC3)cnc12` [Example 16], the concentration for a half-maximal effect (EC50) in data set [1] was determined as 65.8 µM; in data set [2], 0.104 µM.

Regarding `CCCC[C@](C)(CO)Nc1nc(N)nc2cc(-c3cc(=O)[nH]cc3CN(C)CCc3ccccc3)cnc12` [Example 11], the 50% effective concentration (EC50) in data set [2] came out at 1.65 µM.

With `CCCC[C@](C)(CO)Nc1nc(N)nc2cc(-c3cc(=O)n(C)cc3CN(C)CCC3CC3)cnc12` [Example 2], the EC50 is greater than 100 µM in data set [1] and 0.1 µM in data set [2].

Take `CCCCN(CCCC)Cc1c[nH]c(=O)cc1-c1ccc2c(N[C@@](C)(CO)CCCC)nc(N)nc2c1` [Example 32]: the half-maximal effective concentration (EC50) in data set [1] came out at 47.2 µM; in data set [2], 0.399 µM.

As for `CCCC[C@](C)(CO)Nc1nc(N)nc2cc(-c3cc(=O)[nH]cc3CN(C)CCC3CC3)cnc12` [Example 12], the values for the concentration for a half-maximal effect (EC50) in data set [1] and in data set [2] were 50.8 µM and 0.019 µM, respectively.

Regarding `C#CCCN(C)Cc1cn(C)c(=O)cc1-c1cnc2c(N[C@@](C)(CO)CCCC)nc(N)nc2c1` [Example 6], the EC50 in data set [1] is greater than 100 µM; in data set [2], 3.9 µM.

Compound `CCCC[C@](C)(CO)Nc1nc(N)nc2cc(-c3cc(=O)[nH]cc3CN3CCNCC3)cnc12` [Example 15] came in with a half-maximal cytotoxic concentration (CC50) at 24 h in data set [3] greater than 100 µM.

Regarding `C=CCCN(CCC=C)Cc1c[nH]c(=O)cc1-c1ccc2c(N[C@@](C)(CO)CCCC)nc(N)nc2c1` [Example 31], the concentration giving a half-maximal response (EC50) turned out to be 56.7 µM in data set [1] and 0.209 µM in data set [2].

For `CCCC[C@](C)(CO)Nc1nc(N)nc2cc(-c3cc(=O)n(C)cc3CN(C)CCc3ccccc3)cnc12` [Example 1, (R)-4-(2-Amino-4-((1-hydroxy-2-methylhexan-2-yl)amino)pyrido[3,2-d]pyrimidin-7-yl)-1-methyl-5-((methyl(phenethyl)amino)methyl)pyridin-2(1H)-one], the EC50 amounted to 73 µM in data set [1] and 1.82 µM in data set [2].

As for `C=CCCN(C)Cc1cn(C2CCN(C)CC2)c(=O)cc1-c1cnc2c(N[C@@](C)(CO)CCCC)nc(N)nc2c1` [Example 37, (R)-4-(2-Amino-4-((1-hydroxy-2-methylhexan-2-yl)amino)pyrido[3,2-d]pyrimidin-7-yl)-5-((but-3-en-1-yl(methyl)amino)methyl)-1-(1-methylpiperidin-4-yl)pyridin-2(1H)-one], the figures for the EC50 in data set [1] and in data set [2] were greater than 100 µM and 0.397 µM, respectively.

With `CCCC[C@](C)(CO)Nc1nc(N)nc2cc(-c3cc(=O)[nH]cc3CN(C)CCc3ccccc3)ccc12` [Example 29, (R)-4-(2-Amino-4-((1-hydroxy-2-methylhexan-2-yl)amino)quinazolin-7-yl)-5-((methyl(phenethyl)amino)methyl)pyridin-2(1H)-one], the figures for the EC50 in data set [1] and in data set [2] were 23.2 µM and 0.267 µM, respectively.

As for `CCCCN(CCCC)Cc1cn(C)c(=O)cc1-c1cnc2c(N[C@@](C)(CO)CCCC)nc(N)nc2c1` [Example 4], the EC50 is greater than 100 µM in data set [1] and 1.07 µM in data set [2].

Take `C=CCCN(CCC=C)Cc1cn(C)c(=O)cc1-c1cnc2c(N[C@@](C)(CO)CCCC)nc(N)nc2c1` [Example 3]: the values for the EC50 in data set [1] and in data set [2] were greater than 100 µM and 1.46 µM, respectively.

On to `CCCCN(C)Cc1c[nH]c(=O)cc1-c1cnc2c(N[C@@](C)(CO)CCCC)nc(N)nc2c1` [Example 69, 4-(2-Amino-4-((1-hydroxy-2-methylhexan-2-yl)amino)pyrido[3,2-d]pyrimidin-7-yl)-5-((butyl(methyl)amino)methyl)pyridin-2(1H)-one], for which the values for the 50% effective concentration (EC50) in data set [1] and in data set [2] were 12 µM and 0.023 µM, respectively.

On to `CCCC[C@](C)(CO)Nc1nc(N)nc2cc(-c3cc(=O)[nH]cc3CN3CCC(F)(F)CC3)cnc12` [Example 26], for which the figures for the concentration giving a half-maximal response (EC50) in data set [1] and in data set [2] were 54.6 µM and 0.845 µM, respectively.
